Test results reported in PMC4877006, “From Binding-Induced Dynamic Effects in SH3 Structures to Evolutionary Conserved Sectors” (PLoS Computational Biology, 2016).

Key:
Set-up in all cases: species or system chicken
c-Src wt (SH3 domain) = molecular target: T1, c-Src wt (SH3 domain) (Gallus gallus, UniProt P00523, Q128R); experiment: ITC binding of peptide RLP2 to c-Src SH3 wt; details: 25 °C
T1 construct: The plasmid pET15b containing the chicken c-Src-SH3 domain gene; made in house
Procedure: (§1) Differential Scanning Calorimetry (DSC) was used to evaluate the effect of the mutation on the conformational equilibrium and stability of the protein. Isothermal Titration Calorimetry (ITC) measured the binding energetics of all mutants to the RLP2 ligand at 25°C. The results for the 15 mutants studied are summarized in Figs 1D, S1 and S2, as well as S3 and S4 Tables.
(§2) The plasmid pET15b containing the chicken c-Src-SH3 domain gene was a generous gift from Dr. E. Freire (Johns Hopkins University). The genes encoding for the c-Src-SH3 mutants were obtained by site directed mutagenesis using the QuickChange Site-Directed-Mutagenesis Kit (Stratagene) taking the WT c-Src-SH3 plasmid as template or purchased from Top Gene Technologies, Canada. WT and mutants of c-Src-SH3 domain were expressed and purified as previously described for the wild type protein [68]. The peptide RLP2 (Ac-RALPPLPRY-NH2) was bought from Peptide 2.0 (Piscataway, USA) and JPT (Berlin, Germany) with a purity > 95%. Protein concentration was determined by absorbance at 280 nm using an extinction coefficient of 16500 M^-1·cm^-1. Peptide concentration was determined by absorbance at 274 nm using an extinction coefficient of 1400 M^-1·cm^-1.
(§3) Isothermal titration calorimetry was performed using a high-precision VP titration calorimetric system (Microcal Inc., Northampton, MA) as previously described. […] Titrations were made using a profile of injection volumes from 3 μL to 20 μL to define the titration curve more clearly. The heat produced by the binding reaction between the Src-SH3 domain and the peptide ligand was calculated as the difference between the heat of reaction and the corresponding heat of dilution, as obtained from independent titrations of the peptide ligand into the buffer. The resulting binding isotherms were analyzed by non-linear least-square fittings of the experimental data to a model corresponding to a single set of identical sites, as described before.
(§4) Supplementary file pcbi.1004938.s008.doc: S3 Table Analysis of Src SH3 binding affinities through ITC. Thermodynamic binding affinity to peptide RLP2. A * indicates experiment made by fluorescence titration only. (DOC) Click here for additional data file.

c-Src F18L (SH3 domain) [1] = molecular target: T2, c-Src F18L (SH3 domain) (Gallus gallus, UniProt P00523, F86L/Q128R); experiment: ITC binding of peptide RLP2 to c-Src SH3 F18L; details: ITC, 25 °C
T2 construct: The plasmid pET15b containing the chicken c-Src-SH3 domain gene; made in house
Procedure: as §1, §2, §3, §4

c-Src F18L (SH3 domain) [2] = experiment: ITC binding of peptide RLP2 to c-Src SH3 F18L; details: 25 °C, binding of RLP2, F18L relative to wt
Procedure: as §1, §2, §3, §4

c-Src F18W (SH3 domain) = molecular target: T3, c-Src F18W (SH3 domain) (Gallus gallus, UniProt P00523, F86W); experiment: ITC binding of peptide RLP2 to c-Src SH3 F18W; details: 25 °C
T3 construct: The plasmid pET15b containing the chicken c-Src-SH3 domain gene; made in house
Procedure: as §1, §2, §3, §4

c-Src S26A (SH3 domain) = experiment: ITC binding of peptide RLP2 to c-Src SH3 S26A; details: 25 °C
Procedure: as §1, §2, §3, §4

c-Src L32V (SH3 domain) = molecular target: T4, c-Src L32V (SH3 domain) (Gallus gallus, UniProt P00523, L100V/Q128R); experiment: Fluorescence titration binding of peptide RLP2 to c-Src SH3 L32V; details: fluorescence titration only, 25 °C
T4 construct: The plasmid pET15b containing the chicken c-Src-SH3 domain gene; made in house
Text: as §2, §4

c-Src F34I (SH3 domain) = molecular target: T5, c-Src F34I (SH3 domain) (Gallus gallus, UniProt P00523, F102I/Q128R); experiment: ITC binding of peptide RLP2 to c-Src SH3 F34I; details: 25 °C
T5 construct: The plasmid pET15b containing the chicken c-Src-SH3 domain gene; made in house
Procedure: as §1, §2, §3, §4

c-Src L40I (SH3 domain) = molecular target: T6, c-Src L40I (SH3 domain) (Gallus gallus, UniProt P00523, L108I); experiment: ITC binding of peptide RLP2 to c-Src SH3 L40I; details: 25 °C
T6 construct: The plasmid pET15b containing the chicken c-Src-SH3 domain gene; made in house
Procedure: as §1, §2, §3, §4

c-Src L40V (SH3 domain) = experiment: ITC binding of peptide RLP2 to c-Src SH3 L40V; details: 25 °C
Procedure: as §1, §2, §3, §4

[3] = binding of RLP2, wt = reference
[4] = binding of RLP2, F18W relative to wt
[5] = binding of RLP2, S26A relative to wt
[6] = binding of RLP2, F34I relative to wt
[7] = binding of RLP2, L40I relative to wt
[8] = binding of RLP2, L40V relative to wt

Substance: Ac-RALPPLPRY-NH2 [RLP2, Ac-RALPPLPRY-NH2]
- ∆∆Gb (25 ºC) (c-Src wt (SH3 domain); [3]): 0 kJ/mol
- ∆∆Hb (25 ºC) (c-Src wt (SH3 domain); [3]): 0 kJ/mol
- ∆Gb (25 ºC) (c-Src wt (SH3 domain); ITC, binding of RLP2, wt): -27.7 ± 0.13 kJ/mol
- ∆Hb (25 ºC) (c-Src wt (SH3 domain); ITC, binding of RLP2, wt): -59.4 ± 0.84 kJ/mol
- Kd (c-Src wt (SH3 domain); ITC, RLP2 about 2 mM titrated into SH3 (50-122 μM), single set of identical sites, wt, read-out: Kd (25 ºC)): 13.8 ± 0.6 µM
- ∆Gb (25 ºC) (c-Src F18L (SH3 domain) [1]; binding of RLP2, F18L): -27.8 ± 0.042 kJ/mol
- ∆Hb (25 ºC) (c-Src F18L (SH3 domain) [1]; binding of RLP2, F18L): -60.7 ± 0.42 kJ/mol
- Kd (c-Src F18L (SH3 domain) [1]; RLP2 about 2 mM titrated into SH3 (50-122 μM), F18L, read-out: Kd (25 ºC)): 13.5 ± 0.3 µM
- ∆∆Gb (25 ºC) (c-Src F18L (SH3 domain) [2]): -0.042 ± 0.13 kJ/mol
- ∆∆Hb (25 ºC) (c-Src F18L (SH3 domain) [2]): -1.3 ± 0.84 kJ/mol
- ∆∆Gb (25 ºC) (c-Src F18W (SH3 domain); [4]): 0.962 ± 0.13 kJ/mol
- ∆∆Hb (25 ºC) (c-Src F18W (SH3 domain); [4]): 5.02 ± 0.84 kJ/mol
- ∆Gb (25 ºC) (c-Src F18W (SH3 domain); ITC, binding of RLP2, F18W): -26.8 ± 0.042 kJ/mol
- ∆Hb (25 ºC) (c-Src F18W (SH3 domain); ITC, binding of RLP2, F18W): -54.4 ± 0.42 kJ/mol
- Kd (c-Src F18W (SH3 domain); ITC, RLP2 about 2 mM titrated into SH3 (50-122 μM), F18W, read-out: Kd (25 ºC)): 20.2 ± 0.3 µM
- ∆∆Gb (25 ºC) (c-Src S26A (SH3 domain); [5]): 0.753 ± 0.25 kJ/mol
- ∆∆Hb (25 ºC) (c-Src S26A (SH3 domain); [5]): 1.7 ± 2.1 kJ/mol
- ∆Gb (25 ºC) (c-Src S26A (SH3 domain); ITC, binding of RLP2, S26A): -27 ± 0.21 kJ/mol
- ∆Hb (25 ºC) (c-Src S26A (SH3 domain); ITC, binding of RLP2, S26A): -57.7 ± 2.1 kJ/mol
- Kd (c-Src S26A (SH3 domain); ITC, RLP2 about 2 mM titrated into SH3 (50-122 μM), S26A (control), read-out: Kd (25 ºC)): 18.8 ± 1.4 µM
- ∆∆Gb (25 ºC) (c-Src L32V (SH3 domain); L32V relative to wt): 7.36 ± 0.29 kJ/mol
- ∆Gb (25 ºC) (c-Src L32V (SH3 domain); binding of RLP2, L32V): -20.4 ± 0.25 kJ/mol
- Kd (c-Src L32V (SH3 domain); L32V, read-out: Kd (25 ºC)): 269 ± 29 µM
- ∆∆Gb (25 ºC) (c-Src F34I (SH3 domain); [6]): 3.31 ± 0.13 kJ/mol
- ∆∆Hb (25 ºC) (c-Src F34I (SH3 domain); [6]): 2.5 ± 1.3 kJ/mol
- ∆Gb (25 ºC) (c-Src F34I (SH3 domain); ITC, binding of RLP2, F34I): -24.4 ± 0.042 kJ/mol
- ∆Hb (25 ºC) (c-Src F34I (SH3 domain); ITC, binding of RLP2, F34I): -56.9 ± 1.3 kJ/mol
- Kd (c-Src F34I (SH3 domain); ITC, RLP2 about 2 mM titrated into SH3 (50-122 μM), F34I, read-out: Kd (25 ºC)): 52.6 ± 1.2 µM
- ∆∆Gb (25 ºC) (c-Src L40I (SH3 domain); [7]): 1 ± 0.17 kJ/mol
- ∆∆Hb (25 ºC) (c-Src L40I (SH3 domain); [7]): 1.7 ± 1.7 kJ/mol
- ∆Gb (25 ºC) (c-Src L40I (SH3 domain); ITC, binding of RLP2, L40I): -26.7 ± 0.084 kJ/mol
- ∆Hb (25 ºC) (c-Src L40I (SH3 domain); ITC, binding of RLP2, L40I): -57.7 ± 1.3 kJ/mol
- Kd (c-Src L40I (SH3 domain); ITC, RLP2 about 2 mM titrated into SH3 (50-122 μM), L40I, read-out: Kd (25 ºC)): 20.6 ± 0.6 µM
- ∆∆Gb (25 ºC) (c-Src L40V (SH3 domain); [8]): 1 ± 0.17 kJ/mol
- ∆∆Hb (25 ºC) (c-Src L40V (SH3 domain); [8]): -2.5 ± 1.3 kJ/mol
- ∆Gb (25 ºC) (c-Src L40V (SH3 domain); ITC, binding of RLP2, L40V): -26.7 ± 0.084 kJ/mol
